Experimental data taken from paper PMC4436593, “Endoplasmic reticulum stress-independent activation of unfolded protein response kinases by a small molecule ATP-mimic” (eLife, 2015).

Tests used:
PERK (535–1093 Δ660–868) = biological target: T1, PERK (535–1093 Δ660–868) (Homo sapiens, UniProt Q9NZJ5, DEL660-868); assay: In vitro PERK activation assay (rate of eIF2α phosphorylation by dephosphorylated tag-free PERK cytosolic domain); type: biochemical
T1 construct: GST (N, cleaved yes); made in house; host or cells: E. coli BL21 star (DE3), co-expressed with lambda phosphatase
T1 sequence (Q9NZJ5 with tags, fused parts or gaps DEL660-868): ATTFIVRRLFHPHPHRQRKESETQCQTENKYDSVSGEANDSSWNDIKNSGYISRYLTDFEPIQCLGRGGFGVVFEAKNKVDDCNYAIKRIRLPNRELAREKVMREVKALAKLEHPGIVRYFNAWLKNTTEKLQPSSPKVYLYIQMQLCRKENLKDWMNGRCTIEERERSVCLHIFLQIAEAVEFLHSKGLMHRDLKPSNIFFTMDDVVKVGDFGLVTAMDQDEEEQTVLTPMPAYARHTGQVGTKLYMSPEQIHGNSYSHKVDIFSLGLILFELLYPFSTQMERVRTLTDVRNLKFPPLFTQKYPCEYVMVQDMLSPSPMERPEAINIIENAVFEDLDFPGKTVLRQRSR
Source text: To address directly whether PERK activation resulted from IPA binding to PERK itself, we recombinantly expressed the cytosolic portion of human PERK and eIF2α, the only known PERK substrate, and reconstituted the phosphorylation reaction in vitro. To this end, the cytosolic portion of PERK was dephosphorylated and then proteolytically severed and chromatographically separated from its glutathione S-transferase tag, known to promote-constitutive multimerization. The resulting PERK cytosolic fragment was responsive to activation, by contrast to the constitutively active, phosphorylated PERK-GST fusion protein assayed in Figure 4—figure supplement 1.
Full-length cytosolic human PERK was codon-optimized for E. coli expression by Genewiz Inc. A construct was then cloned into a Pgex-6p-2 vector for expression using two rounds of In-Fusion cloning (Clontech) (535–1093 Δ660–868). The cytosolic portion of PERK, lacking the unstructured loop region (amino acids 535–1093 Δ660–868) was then co-expressed with a tagless lambda phosphatase to produce a fully dephosphorylated PERK protein in BL21 star (DE3) (Life Technologies) ([Dar et al., 2008]). Cells were grown to an OD600 of 0.5 before induction with 0.1 mM IPTG at 15°C for 25 hr. Cells were harvested and lysed using AVESTIN Emulsiflex-C3 in a buffer containing 50 mM Tris-HCl, pH 8.0, 500 mM NaCl, 10% glycerol, 5 mM TCEP (buffer A), and EDTA-free COMPlete protease inhibitor cocktail (Roche). Lysate was cleared by centrifugation at 100,000×g before batch binding to a GST-Sepharose resin. The resin was washed 5× times with buffer A, and on-column tag cleavage was preformed using PreScission protease (GE Healthcare). The protein was loaded onto a HiTrap Q HP column to remove remaining protease. The PERK (535–1093 Δ660–868) protein was then concentrated and fractionated on a Superdex 200 GL (GE Healthcare) to remove uncleaved GST-PERK protein.
PERK activation was measured using PERK (535–1093 Δ660–868) in a buffer containing 20 mM Tris-HCl, 150 mM NaCl, 4 mM MgCl2, 5 mM TCEP, 1% glycerol, pH 8.0. PERK concentration was 1 μM, and activity was measured at 30°C. PERK was pre-incubated with 50 μM of cold ATP in the presence or absence of IPA or IPAx. The reaction was then initiated by adding S. cerevisiae eIF2α (1–180) and 0.2 mCi γ-[^32P]-ATP. The reaction was monitored over a time course of 30 min, during which 1/6 of the reaction volume was removed at 0.5, 1, 5, 10, 20, and 30 min and stopped in Laemmli buffer supplemented with 50 mM EDTA. […] Gels were quantified using ImageQuant software and data were processed using SigmaPlot software package. Rates were determined using non-linear regression. Experiments were performed 3 times, and mean errors were determined.

[1] = biological target: T2, PERK cytosolic domain (535–1093 Δ660–868) (Homo sapiens, UniProt Q9NZJ5, DEL660-868); assay: In vitro PERK cross-linking assay; type: biochemical; conditions: PERK 2 μM; IPAx 50 μM
T2 construct: GST (N, cleaved yes); made in house; host or cells: E. coli BL21 star (DE3), co-expressed with lambda phosphatase
T2 sequence (Q9NZJ5 with tags, fused parts or gaps DEL660-868): T1 sequence (Q9NZJ5 with tags, fused parts or gaps DEL660-868)
Method: A solution of PERK cytosolic domain (535–1093 Δ660–868) (2 μM) was incubated with IPA or IPAx for 15 min before the addition of 250 μM of the amino group-reactive cross-linking agent bis[sulfosuccinimidyl] […] (BS2g-d0, Thermo Scientific). After 30-min incubation at room temperature Tris-HCl pH 7.5 was added to a final concentration of 55 mM. Samples were then boiled in Laemmli sample buffer and loaded into an Any kD Mini-protean TGX gel (Bio Rad). Cross-linked protein was visualized using Colloidal Coomassie G-250 stain.

SMILES | fold change in rate of eIF2α phosphorylation by PERK (maximal activation) (PERK (535–1093 Δ660–868); 0.5 μM (500 nM) IPA, normalized to DMSO control, PERK 1 μM) [fold] | fold change in rate of eIF2α phosphorylation by PERK (inhibitory concentration) (PERK (535–1093 Δ660–868); 3 μM IPA, normalized to DMSO control) [fold] | PERK oligomerization (cross-linked dimers, trimers, tetramers) [1] | effect on the rate of PERK activity (PERK (535–1093 Δ660–868); IPAx 20 μM) | PERK activation in vitro (PERK (535–1093 Δ660–868); IPAx 0.3 and 0.5 μM, normalized to DMSO control)
CSc1ccc(NC(=O)Nc2ccc(Nc3nccc(Nc4cc(C5CC5)[nH]n4)n3)cc2)cc1 [IPA] | 3.3 | 0.31 | significantly increased PERK oligomerization | – | –
CSc1ccc(NC(=O)Nc2ccc(Nc3nccc(Nc4cc(C5CC5)n(C)n4)n3)cc2)cc1 [IPAx] | – | – | showed no effect | showed no effect | No activation was observed
